Measured values published in patent US20080293664A1, “Non-nucleoside reverse transcriptase inhibitors” (Roche Palo Alto LLC, priority 2007, published 2008).
Where a name gives a salt, the structure may show the parent alone. Read-outs that look alike come from different tables or passages of the source.

Legend:
[1] = biological target: HIV-1 Reverse Transcriptase (Human immunodeficiency virus type 1 group M subtype B, UniProt P03366); assay: HIV-1 Reverse Transcriptase Assay (RNA-dependent DNA polymerase activity, SPA); type: biochemical; details: HIV-RT enzyme 1-3 nM, 30° C. for 30 min, 10% DMSO
Protocol: HIV-1 Reverse Transcriptase Assay
RNA-dependent DNA polymerase activity was measured using a biotinylated primer oligonucleotide and tritiated dNTP substrate. Newly synthesized DNA was quantified by capturing the biotinylated primer molecules on streptavidin coated Scintillation Proximity Assay (SPA) beads (Amersham). The sequences of the polymerase assay substrate were: 18nt DNA primer, 5′-Biotin/GTC CCT GTT CGG GCG CCA-3′; 47nt RNA template, 5′-GGGUCUCUCUGGUUAGACCACUCUAGCAGUGGCGCCCGAACAGGGAC-3′. The biotinylated DNA primer was obtained from the Integrated DNA Technologies Inc. and the RNA template was synthesized by Dharmacon. The DNA polymerase assay (final volume 50 μl) contained 32 nM biotinylated DNA primer, 64 nM RNA substrate, dGTP, dCTP, dTTP (each at 5 μM), 103 nM [^3H]-dATP (specific activity=[…]), in 45 mM Tris-HCl, pH 8.0, 45 mM NaCl, 2.7 mM Mg(CH3COO)2, 0.045% Triton X-100 w/v, 0.9 mM EDTA. The reactions contained 5 ul of serial compound dilutions in 100% DMSO for IC50 determination and the final concentrations of DMSO were 10%. Reactions were initiated by the addition of 30 μl of the HIV-RT enzyme (final concentrations of 1-3 nM). Protein concentrations were adjusted to provide linear product formation for at least 30 min of incubation. […] The beads were left to settle overnight and the SPA signals were counted in a 96-well top counter-NXT (Packard). […]

[2] = system: HXB2-strain of HIV in MT4 cells; assay: Antiviral assay: protection of HIV-infected MT4 cells from cell death (MTT); type: cell-based; details: read-out: Antiviral Assay IC50
Protocol: Antiviral Assay Method Anti-HIV antiviral activity was assessed using an adaptation of the method of Pawls et al. (J. Virol Methods 1988 20:309-321). The method is based on the ability of compounds to protect HIV-infected T lymphoblastoid cells (MT4 cells) from cell-death mediated by the infection. The endpoint of the assay was calculated as the concentration of compound at which the cell viability of the culture was preserved by 50% (‘50% inhibitory concentration’, IC50). The cell viability of a culture was determined by the uptake of soluble, yellow 3-[4,5-dimethylthiazol-2-yl]-2,5-diphenyltetrazolium bromide (MTT) and its reduction to a purple insoluble formazan salt. After solubilization, spectrophotometric methods were employed to measure the amount of formazan product. MT4 cells were prepared to be in logarithmic-phase growth and a total of 2×10^6 cells infected with the HXB2-strain of HIV at a multiplicity of 0.0001 infectious units of virus per cell in a total volume of between 200-500 microliters. […] When the formazan deposit was fully solubilized by further mixing, the absorbance (OD) of the cultures was measured at 540 nm and 690 nm wavelength (690 nm readings were used as blanks for artifacts between wells). The percent protection for each treated culture was then calculated from the equation: [formula] […]

`N#Cc1cc(Cl)cc(C(=O)c2cc(Cl)ccc2OCc2n[nH]c3ncccc23)c1` [Compound I-2, 3-Chloro-5-[5-chloro-2-(1H-pyrazolo[3,4-b]pyridin-3-ylmethoxy)-benzoyl]-benzonitrile] gave a melting point of 194.3 to 195.9 °C, an IC50 [1] of 24.4 nM and an IC50 ([2]; Human immunodeficiency virus 1, 120 h, MT4 cells infected with HXB2-strain of HIV, 5 days, MTT viability) of 3.7 nM.

In the case of `N#Cc1cc(Cl)cc(Oc2c(Cl)ccc(OCc3n[nH]c4ncccc34)c2F)c1` [Compound I-3, 3-Chloro-5-[6-chloro-2-fluoro-3-(1H-pyrazolo[3,4-b]pyridin-3-ylmethoxy)-phenoxy]-benzonitrile, trifluoroacetate salt], the IC50 [1] is reported as 11 nM and the IC50 ([2]; Human immunodeficiency virus 1, HXB2, MT4, 120 h) is reported as 8 nM.

In the case of `N#Cc1cc(Cl)cc(C(=O)c2c(CNc3n[nH]c4ncccc34)ccc(Br)c2F)c1` [Compound I-9], the melting point is reported as 214 to 215 °C.
